Test results as given in publication PMC9962794, “A Novel and Functionally Diverse Class of Acetylcholine-Gated Ion Channels” (The Journal of Neuroscience, 2023).
Like-named read-outs stand apart in the source and are kept apart here. Each block holds one molecule with its values, some of them ahead of it.

Columns and labels:
Assay in all cases: two-electrode voltage clamp, oocytes
Type in all cases: cell-based
[1] = biological target: T1, LGC-57 (Caenorhabditis elegans, UniProt Q09453)
T1 construct: full-length untagged cDNA in KSM vector, cRNA in Xenopus laevis oocytes; pentameric, expressed alone
T1 sequence (Q09453 20-473): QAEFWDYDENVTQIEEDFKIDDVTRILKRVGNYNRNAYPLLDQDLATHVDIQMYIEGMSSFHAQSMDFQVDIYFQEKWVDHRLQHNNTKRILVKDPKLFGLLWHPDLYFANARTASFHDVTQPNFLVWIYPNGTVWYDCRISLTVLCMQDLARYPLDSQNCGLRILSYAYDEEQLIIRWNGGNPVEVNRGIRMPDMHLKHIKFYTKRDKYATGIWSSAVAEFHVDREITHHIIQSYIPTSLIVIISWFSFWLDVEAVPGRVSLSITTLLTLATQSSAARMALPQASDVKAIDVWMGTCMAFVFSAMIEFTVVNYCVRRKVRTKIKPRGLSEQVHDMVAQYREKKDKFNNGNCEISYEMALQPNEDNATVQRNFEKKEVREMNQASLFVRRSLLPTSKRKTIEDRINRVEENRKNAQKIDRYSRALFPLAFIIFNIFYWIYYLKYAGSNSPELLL

[2] = biological target: T2, LGC-39 (Caenorhabditis elegans, UniProt O17402)
T2 construct: full-length cDNA by gene synthesis, KSM vector, cRNA in Xenopus laevis oocytes; homomeric pentameric channel
T2 sequence (O17402 22-563): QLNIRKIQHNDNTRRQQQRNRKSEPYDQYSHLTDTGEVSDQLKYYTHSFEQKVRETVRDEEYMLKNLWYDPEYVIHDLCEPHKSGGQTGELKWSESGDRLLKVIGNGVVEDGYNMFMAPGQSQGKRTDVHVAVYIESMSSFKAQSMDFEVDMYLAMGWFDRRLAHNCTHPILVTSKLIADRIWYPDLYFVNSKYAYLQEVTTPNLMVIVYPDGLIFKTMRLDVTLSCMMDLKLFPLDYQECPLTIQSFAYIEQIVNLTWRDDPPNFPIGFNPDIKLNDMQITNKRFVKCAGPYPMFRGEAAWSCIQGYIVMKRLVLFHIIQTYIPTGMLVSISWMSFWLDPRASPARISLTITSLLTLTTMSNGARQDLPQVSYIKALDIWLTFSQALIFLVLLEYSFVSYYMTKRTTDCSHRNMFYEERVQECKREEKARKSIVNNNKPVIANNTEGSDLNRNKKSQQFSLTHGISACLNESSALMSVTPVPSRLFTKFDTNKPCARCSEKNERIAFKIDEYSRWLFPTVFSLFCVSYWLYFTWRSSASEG

[3] = biological target: T3, LGC-46 (Caenorhabditis elegans, UniProt Q95Y52); settings: agonist; ND96, clamped at -60 mV
T3 construct: full-length cDNA in KSM vector, cRNA in Xenopus laevis oocytes; pentameric, expressed alone
T3 sequence (Q95Y52 19-508): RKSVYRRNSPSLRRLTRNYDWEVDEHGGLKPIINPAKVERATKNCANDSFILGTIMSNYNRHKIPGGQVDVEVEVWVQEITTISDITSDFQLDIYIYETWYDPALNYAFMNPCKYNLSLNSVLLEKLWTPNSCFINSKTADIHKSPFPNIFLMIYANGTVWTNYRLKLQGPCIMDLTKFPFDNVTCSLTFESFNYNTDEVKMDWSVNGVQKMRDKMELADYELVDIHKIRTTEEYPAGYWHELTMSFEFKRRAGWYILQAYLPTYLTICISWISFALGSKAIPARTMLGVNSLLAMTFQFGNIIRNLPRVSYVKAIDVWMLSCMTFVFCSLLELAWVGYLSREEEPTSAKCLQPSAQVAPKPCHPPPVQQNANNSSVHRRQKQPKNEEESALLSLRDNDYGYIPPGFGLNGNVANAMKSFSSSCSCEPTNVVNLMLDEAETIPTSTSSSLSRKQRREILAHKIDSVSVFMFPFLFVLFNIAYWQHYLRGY

[4] = biological target: T4, LGC-49 (Caenorhabditis elegans, UniProt Q21420)
T4 construct: full-length cDNA in KSM vector, cRNA in Xenopus laevis oocytes; homomeric pentameric channel
T4 sequence (Q21420 26-457): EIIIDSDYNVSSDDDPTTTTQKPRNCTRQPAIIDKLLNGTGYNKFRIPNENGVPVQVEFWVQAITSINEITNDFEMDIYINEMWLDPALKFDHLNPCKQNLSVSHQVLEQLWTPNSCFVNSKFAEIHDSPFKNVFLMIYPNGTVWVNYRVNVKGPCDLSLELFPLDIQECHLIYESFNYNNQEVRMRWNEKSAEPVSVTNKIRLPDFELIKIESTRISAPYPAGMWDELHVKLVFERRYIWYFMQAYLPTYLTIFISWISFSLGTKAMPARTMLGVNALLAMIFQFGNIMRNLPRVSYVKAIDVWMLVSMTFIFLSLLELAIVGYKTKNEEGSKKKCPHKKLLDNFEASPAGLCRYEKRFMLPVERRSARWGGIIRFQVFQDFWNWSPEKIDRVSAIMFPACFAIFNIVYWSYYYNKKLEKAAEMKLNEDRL

[5] = biological target: T5, LGC-58 (Caenorhabditis elegans, UniProt Q2WF65)
T5 construct: full-length untagged cDNA in KSM vector, cRNA in Xenopus laevis oocytes; pentameric, expressed alone
T5 sequence (Q2WF65 21-546): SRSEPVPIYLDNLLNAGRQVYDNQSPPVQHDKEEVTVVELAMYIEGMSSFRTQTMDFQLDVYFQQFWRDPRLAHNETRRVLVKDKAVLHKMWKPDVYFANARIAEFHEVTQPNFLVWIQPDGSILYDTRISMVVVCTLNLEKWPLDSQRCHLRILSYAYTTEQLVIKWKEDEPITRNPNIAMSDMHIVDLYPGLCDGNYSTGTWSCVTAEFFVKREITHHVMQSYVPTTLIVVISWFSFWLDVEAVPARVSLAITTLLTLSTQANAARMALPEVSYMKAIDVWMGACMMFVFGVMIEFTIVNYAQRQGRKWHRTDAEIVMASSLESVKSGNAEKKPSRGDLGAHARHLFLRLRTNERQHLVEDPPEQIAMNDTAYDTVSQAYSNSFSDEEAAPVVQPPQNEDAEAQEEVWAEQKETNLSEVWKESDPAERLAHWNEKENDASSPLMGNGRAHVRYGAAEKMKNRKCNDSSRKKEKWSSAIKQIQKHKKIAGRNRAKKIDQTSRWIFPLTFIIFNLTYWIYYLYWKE

[6] = biological target: T6, LGC-40 (Caenorhabditis elegans, UniProt Q22741)
T6 construct: full-length untagged cDNA in KSM vector, cRNA in Xenopus laevis oocytes; pentameric, expressed alone
T6 sequence (Q22741 23-494): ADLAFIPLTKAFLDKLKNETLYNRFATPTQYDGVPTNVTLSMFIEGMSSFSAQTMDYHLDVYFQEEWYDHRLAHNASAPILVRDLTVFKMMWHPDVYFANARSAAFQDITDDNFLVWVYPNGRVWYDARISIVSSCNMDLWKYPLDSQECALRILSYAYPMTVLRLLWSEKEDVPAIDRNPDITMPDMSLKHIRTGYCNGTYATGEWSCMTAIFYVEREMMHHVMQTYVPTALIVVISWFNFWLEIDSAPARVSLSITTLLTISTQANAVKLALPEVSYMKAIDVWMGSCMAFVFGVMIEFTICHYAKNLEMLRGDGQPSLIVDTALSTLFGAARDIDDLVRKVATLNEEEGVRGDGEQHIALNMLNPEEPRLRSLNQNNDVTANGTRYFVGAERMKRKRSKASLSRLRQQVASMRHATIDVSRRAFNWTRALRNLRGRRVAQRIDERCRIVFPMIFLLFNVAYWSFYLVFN

[7] = biological target: T2, LGC-39; remark: listed apart in the source

EC50 [1]: 115 µM
EC50 ([2]; read-out: EC50): 1290 µM
EC50 [4]: 19 µM
EC50 [5]: 41 µM
EC50 [6]: 117 µM
Structure (SMILES): CC(=O)OCC[N+](C)(C)C [acetylcholine]
EC50 [3]: the ACh-induced dose–response curve for LGC-46

EC50 [1]: 22 µM
EC50 [5]: 15 µM
EC50 [6]: 15 µM
Structure (SMILES): C[N+](C)(C)CCO [choline]

IC50 [7]: 1 µM
EC50 ([2]; read-out: EC50): 10 µM
Structure (SMILES): NC1=NCC2c3ccccc3Cc3ccccc3N12 (stereo not drawn) [epinastine]

Structure (SMILES): NC[C@H](O)c1ccc(O)cc1 [octopamine]
EC50 ([2]; read-out: EC50): 921 µM

Structure (SMILES): O=C1C[C@@H]2OCC=C3CN4CC[C@]56c7ccccc7N1[C@H]5[C@H]2[C@H]3C[C@H]46 [strychnine]
EC50 [2]: 7.5 µM

Structure (SMILES): NCCc1ccc(O)cc1 [tyramine]
EC50 ([2]; read-out: EC50): 686 µM

IC50 [7]: 4 µM
Structure (SMILES): COC(=O)[C@@H]1[C@H]2C[C@H]3c4[nH]c5ccccc5c4CCN3C[C@@H]2CC[C@@H]1O [yohimbine]
